Where two headings read alike, the source gives them in different places.
Legend:
ZR-75-1 cells = experiment: Effect on ZR-75-1 cell proliferation (11 days, DNA content); format: cell-based, human
Description: For growth studies, ZR-75-1 cells were cultured in MEZR medium or in phenol red-free RPMI 1640 supplemented with 2 mM L-glutamine, 1 mM sodium pyruvate, 15 mM Hepes, antibiotics, 1 nM 17β-estradiol, 0.5 μg of bovine insulin per ml and 5% (v/v) charcoal-treated fetal bovine serum (SD medium), as indicated in the text. When polyamines or polyamine analogs were added to serum-containing media, 1 mM aminoguanidine was added to inhibit bovine serum amine oxidase (BSAO) activity (Morgan, D. M. L. 1989, in The Physiology of Polyamines (Bachrach, U., and Heimer, Y. M. eds) Vol. I, pp. 203-229, CRC Press, Boca Raton). The effect of the transport inhibitors on cell growth was measured by incubating ZR-75-1 cells for 11 days in medium supplemented with antagonist, polyamines and/or 1 mM DFMO as indicated, followed by colorimetric determination of DNA content with 3,4-diaminobenzoic acid (Simard, J., Dauvois, S., Haagensen, D. E., Lėvesque C., Mėrand, Y. and Labriė, F. 1990. Endocrinology 126: 3223-3231). Medium was changed every other day in these experiments because of the slow reaction of the compound with an unknown component present in the IMEM and RPMI 1640 medium formulation.
The biocompatibility of DESC, MESC, and DEASC was thus evaluated during a long-term (11-day) incubation with ZR-75-1 cells grown in RPMI 1640 containing 10% (v/v) FBS in the absence and presence of 1 mM aminoguanidine. […] Weak growth inhibition caused by the mixed MESC-cysteamine disulfide, however, apparently involved degradation by a copper amine oxidase.

polyamine transporter = experiment: Inhibition of [14C]spermine uptake in ZR-75-1 cells; format: cell-based, human
Description: The rate of putrescine and spermidine transport was determined in ZR-75-1 cells incubated in serum-free RPMI 1640 medium as described (Lessard, M., Zhao, C., Singh, S. M. and Poulin, R. 1995. J. Biol. Chem. 270: 1685-1694), using [^3H]putrescine (30 Ci/mol) and [^3H]spermidine (20 Ci/mol), respectively as substrates for a 20 minute-assay period. […] Uptake activity was expressed per amount of DNA as fluorometrically determined using 3,4-diaminobenzoic acid (Simard, J., Dauvois, S., Haagensen, D. E., Lėvesque, C., Mėrand, Y. and Labrie, F. 1990. Endocrinology, 126: 3223-3231). For the determination of spermidine uptake activity in CHO-K1 cells, 80% confluent cell monolayers were rinsed twice with PBS and incubated for 20 minutes at 37° C. in 400 μl of buffer A (20 mM Tris-HCl, pH 7.4; 0.42 mM CaCl2; 0.41 mM MgSO4; 103 mM NaCl; 5.7 mM KCl; 1.1 mM D-glucose) containing 5 μM [^3H]spermidine (20 Ci/mol). Cell cultures were then washed twice with 1 ml PBS containing 5.7 mM sym-norspermidine. Cells were then lysed with 200-μl aliquot of 1 N NaOH and incubated for 30 minutes at 60° C. After neutralization with 200 μl of 1 N HCl, radioactivity was determined from a 250-μl of the cell lysate by scintillation counting. Uptake activity was expressed per amount of total cellular protein as determined by the method of Bradford (Bradford, M. M. 1976. Anal. Biochem. 72: 248-254). Non-specific binding of radioactive substrate was similarly determined in parallel for both cell lines after a 15 second-incubation with 400 μl of ice-cold uptake solution.
Kinetic analysis of polyamine transport was performed by determining uptake activity in the presence of a 3 μM [^3H]putrescine or 1 μM [^3H]spermidine plus increasing concentrations of nonradioactive substrate. K[…] Ki and Vmax values were then estimated by Lineweaver-Burke analysis. For competitive inhibitors, Ki values were also estimated by measuring uptake activity in the presence of logarithmically increasing concentrations of antagonist, and using the Cheng-Prusoff equation (Cheng, Y.-C. and Prusoff, W. H. 1973. Biochem. Pharmacol. 22: 3099-3108) by iterative curve fitting for a sigmoidal curve. For mixed competitive/noncompetitive inhibition, two methods were used to calculate kinetic constants. First, the equation [drawing 2] where v, s, and i are the transport velocity, substrate concentration and inhibitor concentration respectively, was used to calculate the inhibition constants for inhibitor/carrier complex formation (Ki) and carrier/inhibitor/substrate complex formation (Ki′) (Dixon, M. and Webb, E. C. 1976. Enzymes, 3rd Ed., Academic Press, San Diego, Calif.). Alternatively, the value of Ki for a mixed competitor/non-competitor was estimated from the intersect of equations v^−1 vs i at two different substrate concentrations (Dixon, M. and Webb, E. C. 1976. Enzymes, 3rd Ed., Academic Press, San Diego, Calif.). Intracellular Accumulation
In order to evaluate the effectiveness of dimeric triamines as polyamine transport inhibitors, we synthesized N,N′-bis(3-aminopropyl),N,N′-bis(4-aminobutyl)cystamine or BABAC (structure 1, FIG. 25; FIG. 31), and its thiol form N-(3-aminopropyl),N-(4-aminobutyl)cysteamine or AAC (FIG. 31) according to Scheme 4 described above (FIG. 30), using spermidine as a precursor polyamine. The ability of BABAC and AAC to inhibit the intracellular uptake of radio-labeled putrescine and spermidine in the ZR-75-1 human breast cancer cell line was then determined according to standard published procedures (Lessard, et al. and Poulin, et al.) Briefly, ZR-75-1 cells were grown for four days in twenty-four well plates in RPMI 1640 medium supplemented with 10% fetal bovine serum.

[1] = this work, read-out: Km or Ki, spermine transport

Compound | Decrease in cell growth (ZR-75-1 cells; 200 μM, not blocked by aminoguanidine) | Ki for [14C]spermine transport, fold higher than that of DESC (polyamine transporter; FIG. 2) | Ki (polyamine transporter; [1]) | Effect on cell growth (ZR-75-1 cells; 50 μM, with or without 1 mM aminoguanidine) | Effect on cell growth (ZR-75-1 cells; 200 μM) | Ki (polyamine transporter; FIG. 32, read-out: Apparent Ki, spermine uptake)
NCCCNCCCC(NCCCN)C(=O)NCCS (stereo not shown) [MESC, N-(2-mercaptoethyl)spermine-5-carboxamide] | 35% | ~16 fold | 80 ± 31 µM |  |  | 
NCCCNCCCC(NCCCN)C(=O)NCCSSCCNC(=O)C(CCCNCCCN)NCCCN (stereo not shown) [DESC, 2,2′-dithiobis(N-ethyl-spermine-5-carboxamide)] |  |  | 5 ± 0.7 µM | only mildly growth inhibitory | abrupt, aminoguanidine-resistant increase in toxicity | 7.5 µM

From patent US6949679B1, “Polyamine transport inhibitors” (Universite Laval, priority 1998, dated 2005)
